Patent US11339185B2, “Cyclic dinucleotides as anticancer agents” (Bristol-Myers Squibb Company, priority 2018, dated 2022)
Read-outs that look alike come from different tables or passages of the source.

Tests used:
[1] = tested on: THP1-Dual cells, IRF pathway (IRF3); test: STING THP1 Reporter Assay, IRF pathway (secreted Lucia luciferase, QUANTI-Luc); assay type: cell-based; conditions: 10% human plasma, luciferase readout, 100% activation = 100 μM cGAMP, read-out: THP1 Reporter Assays EC50 (μM) IRF3
Source text: (§1) THP1-Dual™ cells were derived from the human THP-1 monocyte cell line by stable integration of two inducible reporter constructs. To this end, THP1-Dual™ cells allow the simultaneous study of the NF-κB pathway, by monitoring the activity of SEAP, and the IRF pathway by assessing the activity of a secreted luciferase (Lucia). Both reporter proteins are readily measurable in the cell culture supernatant when using QUANTI-Blue™, a SEAP detection reagent, and QUANTI-Luc™, a luciferase detection reagent.
(§2) THP1-Dual™ cells induce the activation of NF-κB in response to STING agonists. They also trigger the IRF pathway upon stimulation with STING agonists, such as cGAMP. Here, the THP-1-Dual cells were used to assess STING binders for function on the cellular level.
(§3) Serial dilutions of compounds in DMSO were added to low volume 384 well plates at 100 nl/well using an ECHO acoustic dispenser (Labcyte, model 550) to achieve final starting concentration of 100 μM in cell suspension. THP-1 Dual™ STING reporter cells (Invivogen, Dual cells cat #THPD-nfis) were added to the plates with compounds at 15,000 cells in 10 μL per well in RPMI media (Gibco, cat #11875) containing 10% human plasma in a low volume 384-well black wall clear bottom tissue culture plate (Corning, cat #3542) for SEAP assay and low volume solid white plate (Corning, cat #3826) for luciferase assay. One column of the plate was reserved for treatment with cGAMP at 100 μM for 100% activation calculation and one column for no treatment (DMSO only) for baseline activation. Plates were then incubated in 37 OC incubator at 5% CO2 for 20 hours.
(§4) In the SEAP assay, 5 μl of 2× QuantiBlue (Invivogen, cat #Rep-qb2) is added to 384 well black plates seeded with THP1 cells and incubated at 37° C. for 2 hours. Plates were read on the Envision (Perkin Elmer) at 620 nm wavelength (OD620). In the luciferase assay, 5 μl of Quantiluc (Invivogen, Rep-qlc2) is added to white 384 well plates seeded with THP1 cells and read at 5 minutes on the Envision (Perkin Elmer) using a luminescence protocol (RLU). For both cell lines, 100% activation was determined by value (RLU) of THP-1 Dual STING cells stimulated with 100 μM cGAMP (Invivogen, cat #TLRL-NACGA23-5).

[2] = tested on: THP1-Dual cells, NF-κB pathway; test: STING THP1 Reporter Assay, NF-κB pathway (SEAP, QUANTI-Blue); assay type: cell-based; conditions: 10% human plasma, SEAP readout (OD620), 100% activation = 100 μM cGAMP, read-out: THP1 Reporter Assays EC50 (μM) NFkB
Source text: as §1, §2, §3, §4

[3] = target: T1, STING WT: His-TVMV-S-hSTING(155-341)-H232R (Homo sapiens, UniProt Q86WV6, H232R); test: STING HTRF binding assay (time resolved FRET competition), STING WT; conditions: 20 nM His-tagged STING WT cytoplasmic domain, 200 nM fluorescein-labeled cGAMP analog probe, one hour; read-out: HTRF Binding Assays IC50 (μM) WT
T1 construct: STING WT: His-TVMV-S-hSTING(155-341)-H232R
Experimental: (§5) A time resolved FRET-based competition binding assay was used to assess test article binding to STING WT and STING AQ. His-tagged STING cytoplasmic domain (WT or AQ) at a concentration of 20 nM was incubated with 2.5 nM Tb-labeled anti-His antibody, test compound, and fluorescein-labeled cGAMP analog probe (BioLog cat. no. C195) at a concentration of 200 nM (STING WT) or 40 nM (STING AQ) in PBS containing 0.005% Tween-20 and 0.1% BSA for one hour. Fluorescence at 495 nm and 520 nm was measured using an EnVision microplate reader to quantify FRET between Tb-labeled anti-His antibody and fluorescein-labeled probe. Background was defined as the signal obtained in the absence of STING protein, and background subtracted FRET ratios were normalized to the maximum signal obtained in the absence of test compound. These values were converted to a percent inhibition. Percent inhibition was determined for test compounds at 11 concentrations. The IC50, defined as the concentration of competing test compound needed to reduce specific binding of the probe by 50%, was calculated using the 4 parameter logistic equation to fit the data

[4] = target: T2, STING AQ: His-TVMV-S-hSTING(155-341)-G230A-R293Q (Homo sapiens, UniProt Q86WV6, G230A/H232R/R293Q); test: STING HTRF binding assay (time resolved FRET competition), STING AQ; conditions: 20 nM His-tagged STING AQ cytoplasmic domain, 40 nM fluorescein-labeled cGAMP analog probe, one hour; read-out: HTRF Binding Assays IC50 (μM) AQ
T2 construct: STING AQ: His-TVMV-S-hSTING(155-341)-G230A-R293Q
Experimental: as §5

T1 sequence (Q86WV6 with tags, fused parts or gaps H232R): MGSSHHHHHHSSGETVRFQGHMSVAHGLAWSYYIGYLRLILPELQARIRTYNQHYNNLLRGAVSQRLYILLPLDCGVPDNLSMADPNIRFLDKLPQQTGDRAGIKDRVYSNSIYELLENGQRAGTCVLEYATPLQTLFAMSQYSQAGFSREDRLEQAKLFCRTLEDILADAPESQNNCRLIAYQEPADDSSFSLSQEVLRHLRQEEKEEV
T2 sequence (Q86WV6 with tags, fused parts or gaps G230A/H232R/R293Q): as the sequence (Q86WV6 with tags, fused parts or gaps H232R) above, with G99A, R162Q counted along it

Compound | EC50 ([1]; 20 hours) [µM] | EC50 ([2]; 20 hours) [µM] | IC50 [3] [µM] | IC50 [4] [µM] | EC50 ([1]; Homo sapiens, THP1-Dual, 20 h) [µM] | EC50 ([2]; Homo sapiens, THP1-Dual, 20 h) [µM]
Nc1ncnc2c1ncn2[C@@H]1O[C@@H]2COP(=O)(S)OC[C@@H]3[C@@H](COP(=O)(S)O[C@H]2[C@H]1F)C[C@H]3n1cnc2c(O)n3ccnc3nc21 (single isomer, unassigned) [Example 1-1] | 41 | 54.6 | 0.19 | 0.01 | – | –
Nc1ncnc2c1ncn2[C@@H]1O[C@@H]2COP(=O)(S)OC[C@@H]3[C@@H](COP(=O)(S)O[C@H]2[C@H]1F)C[C@H]3n1cnc2c(O)n3ccnc3nc21 (single isomer, unassigned) [Example 1-2] | 31.3 | 54 | 0.9 | 0.04 | – | –
Nc1ncnc2c1ncn2[C@@H]1O[C@@H]2COP(=O)(S)OC[C@@H]3[C@@H](COP(=O)(S)O[C@H]2[C@H]1F)C[C@H]3n1cnc2c(O)n3ccnc3nc21 (single isomer, unassigned) [Example 1-3] | > 100 | > 100 | 0.84 | 0.02 | – | –
Nc1ncnc2c1ncn2[C@@H]1O[C@@H]2COP(=O)(S)OC[C@@H]3[C@@H](COP(=O)(S)O[C@H]2[C@H]1F)C[C@H]3n1cnc2c(O)n3ccnc3nc21 (single isomer, unassigned) [Example 1-4] | 0.39 | 1.21 | 0.01 | 0.002 | – | –
Nc1ncnc2c1ncn2[C@@H]1C[C@@H]2COP(=O)(S)O[C@@H]3[C@H](O)[C@@H](COP(=O)(S)OC[C@H]21)O[C@H]3n1cnc2c(=O)n3ccnc3[nH]c21 (single isomer, unassigned) [Example 2-1] | – | – | 0.06 | 0.002 | 3.07 | 7.15
Nc1ncnc2c1ncn2[C@@H]1O[C@@H]2COP(=O)(S)OC[C@@H]3[C@@H](COP(=O)(S)O[C@H]2[C@H]1F)C[C@H]3n1cnc2c1ncn1ccnc21 (single isomer, unassigned) [Example 3-1] | 93.1 | > 100 | 1.38 | 0.09 | – | –
Nc1ncnc2c1ncn2[C@@H]1O[C@@H]2COP(=O)(S)OC[C@@H]3[C@@H](COP(=O)(S)O[C@H]2[C@H]1F)C[C@H]3n1cnc2c1ncn1ccnc21 (single isomer, unassigned) [Example 3-2] | 26.6 | 42.6 | 1.49 | 0.03 | – | –

The remaining lines, values ahead:

EC50 ([1]; 20 hours) [µM] | EC50 ([2]; 20 hours) [µM] | IC50 [3] [µM] | IC50 [4] [µM] | EC50 ([1]; Homo sapiens, THP1-Dual, 20 h) [µM] | EC50 ([2]; Homo sapiens, THP1-Dual, 20 h) [µM] | Compound
– | – | 11.1 | 0.1 | > 100 | > 100 | Nc1ncnc2c1ncn2[C@@H]1C[C@@H]2COP(=O)(O)O[C@@H]3[C@H](O)[C@@H](COP(=O)(S)OC[C@H]21)O[C@H]3n1cnc2c(=O)n3ccnc3[nH]c21 (single isomer, unassigned) [Example 4-1]
– | – | > 100 | > 100 | > 100 | > 100 | Nc1ncnc2c1ncn2[C@@H]1C[C@@H]2COP(=O)(S)O[C@H]3[C@@H](O)[C@H](n4cnc5c(=O)n6cc[nH]c6nc54)O[C@@H]3COP(=O)(S)OC[C@H]21 (single isomer, unassigned) [Example 5-1]
> 100 | > 100 | > 100 | 11.8 | – | – | Nc1ncnc2c1ncn2[C@@H]1C[C@@H]2COP(=O)(S)O[C@H]3[C@@H](O)[C@H](n4cnc5c(=O)n6cc[nH]c6nc54)O[C@@H]3COP(=O)(S)OC[C@H]21 (single isomer, unassigned) [Example 5-2]
> 100 | > 100 | > 100 | 5.73 | – | – | Nc1ncnc2c1ncn2[C@@H]1C[C@@H]2COP(=O)(S)O[C@H]3[C@@H](O)[C@H](n4cnc5c(=O)n6cc[nH]c6nc54)O[C@@H]3COP(=O)(S)OC[C@H]21 (single isomer, unassigned) [Example 5-3]
> 100 | > 100 | 34.5 | 0.11 | – | – | Nc1ncnc2c1ncn2[C@@H]1C[C@@H]2COP(=O)(S)O[C@H]3[C@@H](O)[C@H](n4cnc5c(=O)n6cc[nH]c6nc54)O[C@@H]3COP(=O)(S)OC[C@H]21 (single isomer, unassigned) [Example 5-4]
> 100 | > 100 | 6.31 | 0.18 | – | – | Nc1ncnc2c1ncn2[C@@H]1C[C@@H]2COP(=O)(S)O[C@@H]3[C@H](F)[C@@H](COP(=O)(S)OC[C@H]21)O[C@H]3n1cnc2c(=O)n3cc[nH]c3nc21 (single isomer, unassigned) [Example 6-1]
3.18 | 6.99 | 0.13 | 0.01 | – | – | Nc1ncnc2c1ncn2[C@@H]1C[C@@H]2COP(=O)(S)O[C@@H]3[C@H](F)[C@@H](COP(=O)(S)OC[C@H]21)O[C@H]3n1cnc2c(=O)n3cc[nH]c3nc21 (single isomer, unassigned) [Example 6-2]
> 100 | > 100 | 9.24 | 0.22 | – | – | Nc1ncnc2c1ncn2[C@@H]1C[C@@H]2COP(=O)(S)O[C@@H]3[C@H](F)[C@@H](COP(=O)(S)OC[C@H]21)O[C@H]3n1cnc2c(=O)n3cc[nH]c3nc21 (single isomer, unassigned) [Example 6-3]
> 100 | > 100 | 19.4 | 0.63 | – | – | Nc1ncnc2c1ncn2[C@@H]1C[C@@H]2COP(=O)(S)O[C@@H]3[C@H](F)[C@@H](COP(=O)(S)OC[C@H]21)O[C@H]3n1cnc2c(=O)n3cc[nH]c3nc21 (single isomer, unassigned) [Example 6-4]
> 100 | > 100 | 11.1 | 3.41 | – | – | Nc1ncnc2c1ncn2[C@@H]1C[C@@H]2COP(=O)(S)O[C@@H]3[C@H](F)[C@@H](COP(=O)(S)OC[C@H]21)O[C@H]3n1cnc2c1ncn1ccnc21 (single isomer, unassigned) [Example 8-1]
> 100 | > 100 | 3.43 | 0.51 | – | – | Nc1ncnc2c1ncn2[C@@H]1C[C@@H]2COP(=O)(S)O[C@@H]3[C@H](F)[C@@H](COP(=O)(S)OC[C@H]21)O[C@H]3n1cnc2c1ncn1ccnc21 (single isomer, unassigned) [Example 8-2]
> 100 | – | > 100 | 73.5 | – | – | NC(=O)c1cc([C@@H]2C[C@@H]3COP(=O)(S)OC[C@@H]4[C@@H](COP(=O)(S)OC[C@H]32)C[C@H]4n2cnc3c(N)ncnc32)ccn1 (single isomer, unassigned) [Example 15-2]
> 100 | > 100 | – | 0.02 | – | – | Nc1ncnc2c1ncn2[C@@H]1O[C@@H]2COP(=O)(S)OC[C@@H]3[C@@H](COP(=O)(S)O[C@H]2[C@H]1F)C[C@H]3n1cnc2c(=O)[nH]cnc21 (single isomer, unassigned) [Example 22-2]
